Values of other authors, collected in patent US20090221688A1, “PHARMACEUTICAL COMPOSITIONS CONTAINING DOCETAXEL AND A DEGRADATION INHIBITOR AND A PROCESS FOR OBTAINING THE SAME” (Quiral Quimica DO Brasil S.A., priority 2006, published 2009).

Biological target: T1, recombinant human cytochrome P450 1B1 (hCYP1B1) (Homo sapiens, UniProt Q16678)
T1 sequence (Q16678 1-543): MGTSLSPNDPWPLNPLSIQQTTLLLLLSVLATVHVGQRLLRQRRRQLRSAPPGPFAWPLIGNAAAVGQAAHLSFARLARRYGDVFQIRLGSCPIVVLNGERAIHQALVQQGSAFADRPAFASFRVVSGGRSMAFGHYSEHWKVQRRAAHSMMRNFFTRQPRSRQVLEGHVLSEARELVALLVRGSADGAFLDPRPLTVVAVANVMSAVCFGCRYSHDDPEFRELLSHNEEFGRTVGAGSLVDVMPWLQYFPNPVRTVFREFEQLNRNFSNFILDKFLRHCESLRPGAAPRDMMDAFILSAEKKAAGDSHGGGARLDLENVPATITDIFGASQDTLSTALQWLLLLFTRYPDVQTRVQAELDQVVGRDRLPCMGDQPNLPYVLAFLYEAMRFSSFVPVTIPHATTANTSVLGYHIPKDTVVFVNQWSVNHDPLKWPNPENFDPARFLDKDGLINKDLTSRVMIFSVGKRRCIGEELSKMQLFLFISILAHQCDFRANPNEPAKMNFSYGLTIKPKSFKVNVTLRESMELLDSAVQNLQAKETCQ

CC(=O)O[C@@]12COC1C[C@@H](O)[C@@]1(C)C(=O)[C@H](O)C3=C(C)[C@@H](OC(=O)[C@H](O)[C@@H](NC(=O)OC(C)(C)C)c4ccccc4)C[C@@](O)([C@@H](OC(=O)c4ccccc4)[C@@H]12)C3(C)C (stereo partly drawn) [7-epi-docetaxel (II), 4-acetoxy-2-α-benzoyloxy-5β-20-epoxy-1,7-α-10-β-trihydroxy-9-oxo-tax-11-en-13α-il (2R,3S) 3-tert-butoxycarbonylamino-2-hydroxy-3-phenylpropionate ester]
Increase of the activity of hCYP1B1 (concentration of 10 μM): more than 7 fold

CC(=O)O[C@@]12COC1C[C@H](O)[C@@]1(C)C(=O)[C@H](O)C3=C(C)[C@@H](OC(=O)[C@H](O)[C@@H](NC(=O)OC(C)(C)C)c4ccccc4)C[C@@](O)([C@@H](OC(=O)c4ccccc4)[C@@H]12)C3(C)C (stereo partly drawn) [docetaxel, 4-acetoxy-2α-benzoyloxy-5β-20-epoxy-1,7-β-10-β-trihydroxy-9-oxo-tax-11-en-13α-il (2R,3S) 3-tert-butoxycarbonylamino-2-hydroxy-3-phenylpropionate ester]
Metabolism by hCYP1B1 in vitro (EROD activity as a measure): not metabolized
